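These data come from cells grown in 96-well plates and exposed to compound for 48 hours at five concentrations. The concentration for full growth arrest is given as TGI.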
Tests used:
Experiment in all cases: DTP human tumour cell line panel, 48 h
IGROV1 ovarian = system: IGROV1 ovarian
PC-3 prostate = system: PC-3 prostate
HCT-116 colon = system: HCT-116 colon
MCF7 breast = system: MCF7 breast
KM12 colon = system: KM12 colon
EKVX NSCLC = system: EKVX NSCLC
RXF 393 renal = system: RXF 393 renal
HCT-15 colon = system: HCT-15 colon
MOLT-4 leukemia = system: MOLT-4 leukemia
U251 CNS = system: U251 CNS
T-47D breast = system: T-47D breast

SMILES	TGI (IGROV1 ovarian)	TGI (PC-3 prostate)	TGI (HCT-116 colon)	TGI (MCF7 breast)	TGI (KM12 colon)	TGI (EKVX NSCLC)	TGI (RXF 393 renal)	TGI (HCT-15 colon)	TGI (MOLT-4 leukemia)	TGI (U251 CNS)	TGI (T-47D breast)
COC(CO[Si](C)(C)N[Si](C)(C)OCC(OC)c1ccccc1)c1ccccc1 (centres undefined)	> 100 µM	> 100 µM	> 100 µM	> 100 µM	> 100 µM	> 100 µM	> 100 µM	> 100 µM	> 100 µM	> 100 µM	> 100 µM
O=C(OCc1ccccc1[N+](=O)[O-])N1c2ccccc2[C@@]23O[C@]24CCC[C@H]3C#C/C=C\C#C[C@H]14	> 100 µM	> 100 µM	> 100 µM	> 100 µM	> 100 µM	> 100 µM	> 100 µM	> 100 µM	8.11 µM	> 100 µM	> 100 µM
c1ccc2c3c(c(N4CCNCC4)nc2c1)CCCC3	25 µM	25.7 µM	27.5 µM	27.6 µM	33.7 µM	21.1 µM	22.7 µM	29.3 µM	> 100 µM	26.2 µM	28.5 µM
O=C(O)CC(Cc1ccccc1)C(=O)O (centres undefined)	> 100 µM	> 100 µM	> 100 µM	> 100 µM	> 100 µM	> 100 µM	> 100 µM	> 100 µM	> 100 µM	> 100 µM	> 100 µM
Nc1c2c(nc3ccccc13)-c1ccccc1CCC2	37.7 µM	36.3 µM	20.2 µM	28.6 µM	33.4 µM	44.8 µM	23.7 µM	27.3 µM	33 µM	28.3 µM	37.5 µM
O=C(CSCC(=O)N/N=C/c1ccc(F)cc1)N/N=C/c1ccc(F)cc1	> 100 µM	> 100 µM	> 100 µM	> 100 µM	> 100 µM	> 100 µM	> 100 µM	> 100 µM	76.9 µM	> 100 µM	> 100 µM
c1ccc2c(c1)N=c1ccccc1=P21c2ccccc2Nc2ccccc21	10.6 µM	10.1 µM	1.76 µM	5.74 µM	2.13 µM	> 31.1 µM	1.89 µM	> 71.4 µM	1.67 µM	11.3 µM	1.63 µM
COC(=O)c1ccc2c(c1)CC1(C2)Cc2ccc3c(c2C1)CCC3 (centres undefined)	> 100 µM	51.9 µM	> 100 µM	81.5 µM	40.9 µM	> 100 µM	> 100 µM	> 100 µM	37.4 µM	> 100 µM	69.1 µM
O=C1OS2(OC(=O)c3cccc4cccc2c34)c2ccccc21 (centres undefined)	> 100 µM	> 100 µM	> 100 µM	> 100 µM	> 100 µM	> 100 µM	> 100 µM	> 100 µM	> 100 µM	> 100 µM	> 100 µM

— PubChem BioAssay (NCI)
